“And” between values parts separate entries of the source, which are not always exact repeats. Equal values may be shown once. Marks after values point to notes of the source that are not given here.
Tests used:
rats [1] = assay: Tail flick test after intrathecal implantation of PLGA rods; format: in vivo; conditions: for % MPE, tail flick test, Average: average of 6 rats
rats [2] = assay: Paw withdrawal test after intrathecal implantation of PLGA rods; format: in vivo; conditions: for % MPE, paw withdrawal test, Average: average of 6 rats
[3] = Drug release studies of PLGA 85:15 rods (Example 2); format: physicochemical
rats [4] = assay: Anesthesia after intrathecal polymeric implants, all sites tested (Example 2); format: in vivo; conditions: intrathecal rods
[5] = trapezoidal method, individual rats
[6] = trapezoidal method, mean of 6 rats

Structure (SMILES): C[C@@H](NC(=O)[C@@H](N)Cc1ccc(O)cc1)C(=O)NCC(=O)N[C@@H](Cc1ccccc1)C(=O)NNC(=O)[C@H](Cc1ccccc1)NC(=O)CNC(=O)[C@@H](C)NC(=O)[C@@H](N)Cc1ccc(O)cc1 [Biphalin]
- % MPE, tail flick test, Average (rats [1]; 2h): 86.67 % MPE
- % MPE, tail flick test (rats [1]; 2h after intrathecal implantation of PLGA rod, individual rats): 80 % MPE and 96.46 % MPE and 86.99 % MPE and 84.66 % MPE and 76.49 % MPE and 95.43 % MPE
- % MPE, tail flick test, Average (rats [1]; 4h): 91.63 % MPE
- % MPE, tail flick test (rats [1]; 4h, individual rats): 85.6 % MPE and 83.65 % MPE and 91.6 % MPE and 100 % MPE (2×) and 88.92 % MPE
- Area under the curve (AUC), tail flick test (rats [1]; % MPE versus time in days, trapezoidal method, individual rats): 280.84 and 263.66 and 251.97 and 276.26 and 343.10 and 236.51
- Area under the curve (AUC), tail flick test, Mean (rats [1]; % MPE versus time in days, trapezoidal method, mean of 6 rats): 275.39 *
- % MPE, tail flick test, Average (rats [1]; D1): 82.2 % MPE
- % MPE, tail flick test (rats [1]; D1, individual rats): 84.8 % MPE and 71.9346 % MPE and 75.88 % MPE and 100 % MPE and 72.97 % MPE and 87.63 % MPE
- % MPE, tail flick test, Average (rats [1]; D2): 73.13 % MPE
- % MPE, tail flick test (rats [1]; D2, individual rats): 73.6 % MPE and 73.297 % MPE and 69.9187 % MPE and 90.48 % MPE and 55.14 % MPE and 76.34 % MPE
- % MPE, tail flick test, Average (rats [1]; D3): 46.93 % MPE
- % MPE, tail flick test (rats [1]; D3, individual rats): 32.53 % MPE and 35.15 % MPE and 36.59 % MPE and 73.54 % MPE and 50.27 % MPE and 53.49 % MPE
- % MPE, tail flick test, Average (rats [1]; D4): 24 % MPE
- % MPE, tail flick test (rats [1]; D4, individual rats): 22.67 % MPE and 20.16 % MPE and 31.17 % MPE and 33.33 % MPE and 21.08 % MPE and 15.5914 % MPE
- % MPE, tail flick test, Average (rats [1]; D5): 9.086 % MPE
- % MPE, tail flick test (rats [1]; D5, individual rats): 9.067 % MPE and 12.26 % MPE and 21.14 % MPE and 3.175 % MPE and 1.081 % MPE and 7.796 % MPE
- % MPE, tail flick test, Average (rats [1]; D6): 2.009 % MPE
- % MPE, tail flick test (rats [1]; D6, individual rats): 10.4 % MPE and 5.177 % MPE and 4.065 % MPE and 2.381 % MPE and −4.324 ^ % MPE and −5.645 ^ % MPE
- % MPE, paw withdrawal test, Average (rats [2]; 2h, L): 100 % MPE
- % MPE, paw withdrawal test, Average (rats [2]; 2h, R): 100 % MPE
- % MPE, paw withdrawal test (rats [2]; 2h, left (L) hind paw, individual rats): 100 % MPE
- % MPE, paw withdrawal test (rats [2]; 2h, right (R) hind paw, individual rats): 100 % MPE
- % MPE, paw withdrawal test, Average (rats [2]; 4h, L): 100 % MPE
- % MPE, paw withdrawal test (rats [2]; 4h, L, individual rats): 100 % MPE
- % MPE, paw withdrawal test, Average (rats [2]; 4h, R): 100 % MPE
- % MPE, paw withdrawal test (rats [2]; 4h, R, individual rats): 100 % MPE
- % MPE, paw withdrawal test, Average (rats [2]; D1, L): 14.47 % MPE
- % MPE, paw withdrawal test (rats [2]; D1, L, individual rats): 30.27 % MPE and 7.30 % MPE and −1.89 % MPE and 10.92 % MPE and 18.44 % MPE and 21.78 % MPE
- % MPE, paw withdrawal test, Average (rats [2]; D1, R): 16.56 % MPE
- % MPE, paw withdrawal test (rats [2]; D1, R, individual rats): 38.69 % MPE and 10.29 % MPE and −2.32 % MPE and 10.84 % MPE and 16.61 % MPE and 25.27 % MPE
- % MPE, paw withdrawal test, Average (rats [2]; D2, L): 8.34 % MPE
- % MPE, paw withdrawal test (rats [2]; D2, L, individual rats): 6.46 % MPE and 1.46 % MPE and −5.68 % MPE and 12.97 % MPE and 20.92 % MPE and 13.93 % MPE
- % MPE, paw withdrawal test, Average (rats [2]; D2, R): 6.03 % MPE
- % MPE, paw withdrawal test (rats [2]; D2, R, individual rats): 4.92 % MPE and 0.37 % MPE and −6.20 % MPE and 9.44 % MPE and 16.61 % MPE and 11.03 % MPE
- % MPE, paw withdrawal test, Average (rats [2]; D3, L): 7.52 % MPE
- % MPE, paw withdrawal test (rats [2]; D3, L, individual rats): −2.04 % MPE and 10.58 % MPE and 12.12 % MPE and 17.06 % MPE and 12.06 % MPE and −4.64 % MPE
- % MPE, paw withdrawal test, Average (rats [2]; D3, R): 8.40 % MPE
- % MPE, paw withdrawal test (rats [2]; D3, R, individual rats): 7.54 % MPE and 9.92 % MPE and 9.30 % MPE and 13.64 % MPE and 11.07 % MPE and −1.07 % MPE
- % MPE, paw withdrawal test, Average (rats [2]; D4, L): 1.86 % MPE
- % MPE, paw withdrawal test (rats [2]; D4, L, individual rats): 2.27 % MPE and 11.94 % MPE and 2.84 % MPE and 2.14 % MPE and 0.34 % MPE and −8.39 % MPE
- % MPE, paw withdrawal test, Average (rats [2]; D4, R): 1.02 % MPE
- % MPE, paw withdrawal test (rats [2]; D4, R, individual rats): −0.78 % MPE and 9.44 % MPE and 2.21 % MPE and −2.14 % MPE and 3.28 % MPE and −5.88 % MPE
- % MPE, paw withdrawal test, Average (rats [2]; D5, L): 3.36 % MPE
- % MPE, paw withdrawal test (rats [2]; D5, L, individual rats): 18.18 % MPE and 15.02 % MPE and 2.13 % MPE and −5 % MPE and 4.42 % MPE and −14.60 % MPE
- % MPE, paw withdrawal test, Average (rats [2]; D5, R): 4.72 % MPE
- % MPE, paw withdrawal test (rats [2]; D5, R, individual rats): 21.32 % MPE and 17.48 % MPE and 0.37 % MPE and −2.49 % MPE and 8.52 % MPE and −16.91 % MPE
- % MPE, paw withdrawal test, Average (rats [2]; D6, L): 0.45 % MPE
- % MPE, paw withdrawal test (rats [2]; D6, L, individual rats): 14.39 % MPE and 2.73 % MPE and −0.35 % MPE and −5.71 % MPE and −0.68 % MPE and −7.66 % MPE
- % MPE, paw withdrawal test, Average (rats [2]; D6, R): 0.00 % MPE
- % MPE, paw withdrawal test (rats [2]; D6, R, individual rats): 15.89 % MPE and 2.45 % MPE and −3.32 % MPE and −5.34 % MPE and 0.98 % MPE and −10.6 % MPE
- Area under the curve (AUC), paw withdrawal test (left side) (rats [2]; [5]): 41.94 and 82.35 and 118.40 and 104.74 and 73.61 and 86.69
- Area under the curve (AUC), paw withdrawal test (right side) (rats [2]; [5]): 41.65 and 79.45 and 111.20 and 93.88 and 75.91 and 110.34
- Area under the curve (AUC), paw withdrawal test (left side), Mean (rats [2]; [6]): 84.62 *
- Area under the curve (AUC), paw withdrawal test (right side), Mean (rats [2]; [6]): 85.40 *
- release order [3]: two phases
- duration of anesthesia/analgesia (rats [4]): about 3 days

From patent publication US6913760B2, “Drug delivery composition” (New England Medical Hospitals, Inc., priority 2001, dated 2005)
